Experiments:
[1] = system: differentiated L6-myotubes; assay: Glucose uptake screen (Biological example 1 of WO 2019/053427); assay type: cell-based; details: compound at 10 μM, activity relative to isoproterenol at 10 μM, read-out: Biological example 1 of WO 2019/053427 (GU)
In short: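 Rat L6 myoblasts were differentiated into myotubes over 7 days in 2% FBS, then serum-starved overnight. Cells were stimulated with 1×10^−5 M compound plus β2 antagonist ICI-118551 for 1 h 40 min and re-dosed for 20 min in glucose-free medium. Uptake of 50 nM ^3H-2-deoxyglucose over 10 min was counted after NaOH lysis.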

[2] = system: differentiated L6-myotubes; assay: cAMP production relative to isoprenaline (Biological example 2 of WO 2019/053427); assay type: cell-based; details: 0.25 h, compound at 10 μM, activity relative to isoproterenol at 10 μM
In short: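 Differentiated L6 myotubes stimulated 15 min with test compound or isoprenaline, each at final 1×10^−5 M, in HBSS with 1% BSA, 5 mM HEPES, 1 mM IBMX, pH 7.4. cAMP production by the compound expressed relative to that induced by the same concentration of isoprenaline.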

SMILES | Emax at 10 µM [1] [%] | Emax at 10 µM [2] [%]
COC(=O)[C@H]1CC[C@@H](CC(C)(C)NC[C@H](O)c2cccc(F)c2)CC1 [Compound 327, methyl (1S,4s)-4-{2-[(R)-2-(m-fluorophenyl)-2-hydroxyethylamino]-2-methylpropyl}cyclohexanecarboxylate] | > 75 | < 25
COC(=O)[C@H]1CC[C@@H](C(C)(C)NC[C@H](O)c2cccc(F)c2)CC1 [Compound 328, (1S,4s)-8-[(R)-2-(m-fluorophenyl)-2-hydroxyethylamino]-7-methoxy-p-menthan-7-one] | > 75 | < 25
COCC12CCC([C@@H](O)c3cccc(F)c3)(CC1)N2 [Compound 329, (S)-(m-fluorophenyl){4-(methoxymethyl)-7-azabicyclo[2.2.1]hept-1-yl}methanol] | 25 to 50 | < 25
COCC12CCC([C@H](O)c3cccc(F)c3)(CC1)N2 [Compound 330, (R)-(m-fluorophenyl){4-(methoxymethyl)-7-azabicyclo[2.2.1]hept-1-yl}methanol] | > 75 | < 25
CC(C)(C[C@H]1CC[C@@H](C(=O)O)CC1)NC[C@H](O)c1cccc(F)c1 [Compound 331, (1S,4s)-4-{2-[(R)-2-(m-fluorophenyl)-2-hydroxyethylamino]-2-methylpropyl}cyclohexanecarboxylic acid] | 25 to 50 | < 25
CO[C@H]1CC[C@H](C[C@@H]2CC[C@H]([C@@H](O)c3cncc(F)c3)N2)CC1 [Compound 332, (S)-[(2R,5S)-5-{[(1r,4S)-4-methoxycyclohexyl]methyl}-2-pyrrolidinyl](5-fluoro-3-pyridyl)methanol] | 25 to 50 | < 25
CO[C@H]1CC[C@H](C[C@@H]2CC[C@H]([C@H](O)c3cncc(F)c3)N2)CC1 [Compound 333, (R)-[(2R,5S)-5-{[(1r,4S)-4-methoxycyclohexyl]methyl}-2-pyrrolidinyl](5-fluoro-3-pyridyl)methanol] | 25 to 50 | < 25
CO[C@H]1CC[C@H](C[C@H]2CC[C@H]([C@@H](O)c3cccc(F)c3)N2)CC1 [Compound 334, (S)-[(2R,5R)-5-{[(1r,4R)-4-methoxycyclohexyl]methyl}-2-pyrrolidinyl](m-fluorophenyl)methanol] | 25 to 50 | < 25
CO[C@H]1CC[C@H](C[C@H]2CC[C@H]([C@H](O)c3cccc(F)c3)N2)CC1 [Compound 335, (R)-[(2R,5R)-5-{[(1r,4R)-4-methoxycyclohexyl]methyl}-2-pyrrolidinyl](m-fluorophenyl)methanol] | > 75 | < 25
CO[C@H]1CC[C@H](C[C@@H]2CC[C@H]([C@@H](O)c3ccccc3F)N2)CC1 [Compound 336] | 25 to 50 | < 25
CO[C@H]1CC[C@H](C[C@@H]2CC[C@H]([C@H](O)c3ccccc3F)N2)CC1 [Compound 337, (R)-[(2R,5S)-5-{[(1r,4S)-4-methoxycyclohexyl]methyl}-2-pyrrolidinyl](o-fluorophenyl)methanol] | > 75 | < 25
CO[C@H]1CC[C@H](C[C@H]2CC[C@H]([C@@H](O)c3ccccc3F)N2)CC1 [Compound 338, (S)-[(2R,5R)-5-{[(1r,4R)-4-methoxycyclohexyl]methyl}-2-pyrrolidinyl](o-fluorophenyl)methanol] | 50 to 75 | < 25
CO[C@H]1CC[C@H](C[C@H]2CC[C@H]([C@H](O)c3ccccc3F)N2)CC1 [Compound 339, (R)-[(2R,5R)-5-{[(1r,4R)-4-methoxycyclohexyl]methyl}-2-pyrrolidinyl](o-fluorophenyl)methanol] | > 75 | 25 to 50
